Assay results taken from US12655125B2 (SIRONAX LTD., priority 2020, dated 2026).

These compounds were tested on HT-29 cells (assay: HT29 Cells 0FBS Assay In Vitro (TNF-α/SMAC mimetic/zVAD-FMK induced necroptosis, CellTiter-Glo cell viability)). Conditions: Homo sapiens; HT-29 cells, FBS free medium, TNF-α (10 ng/ml), SMAC mimetic (6 uM), zVAD-FMK (10 μM), 20 hours; geometric mean EC50; read-out: Cell activity (EC50) of Compounds 1-116.
Type: cell-based
Text: Protocol for HT29 Cells 0FBS Assay In Vitro
• Cell line: HT-29 (ATCC® HTB-38™) • Culture medium: McCOY's 5 A, Gibco, Cat No. 16600-082 • FBS, Gibco, Cat No. 10099-141C • Trypsin: Gibco, Cat No. 25200-056 • DMSO: Sigma, Cat No. 67-68-5, 1 L • Assay plate: Corning #3903 • Compound dilution plate: Corning #3357 • Inducers: TNFα, GenScript, Cat No. ZO1001-50, • SmacM, Cat. No., HY-15989, MedChemExpress (MCE) • Z_VAD FMK, TargetMol, T6013 • Cell Titer-Glo® Luminescent Cell Viability Assay Kit: Promega, Cat No. G7573 • EnVision: PerkinElmer, 2105-0010 2. Cell Seeding of HT-29 Cells • 1) HT-29 cells were checked every day to make sure they are healthy and growing as expected. They were split sub-culturing when were approximately 80% confluent. • 2) First pre-warm the culture medium of McCOY's 5 A medium (Gibco, Cat No. 16600-082) with 10% FBS (Gibco, Cat No. 10099-141C) in 37° C. water bath for at least 30 min. • 3) Growing cells to desired level of confluency 80% in a T75 flask, aspirate the medium, and wash with warm PBS two times. • 4) Add 2-3 ml fresh warm trypsin (Gibco, Cat No. 25200-056) solution. Transfer the flask to a 37° C. incubator. • 5) After 5 minutes, tap the side of the flask, and examine the flask under a microscope for lifting. If necessary, return the cells to the incubator for an additional 5-10 minutes, with occasional tapping, until lifting is complete. • 6) Quickly neutralize the trypsin reaction by adding 6-9 ml cell culture medium, then transfer the cells to sterile 15 ml conical tubes. Pellet the cells by centrifugation at 300×g for 7 minutes, then decant the supernatant. • 7) Resuspend the cells in fresh cell culture medium. Do cell counting with hemocytometer. • 8) Seed 100 μl of 5,000 cells into each well of the sterile 96-well cell culture plate (Corning 3903) and culture overnight at 37° C. with 5% C02. 3. Compounds Titration and Treatment of HT-29 Cells • 1) All batches of compounds (CPDs) (e.g., compound 1-281) were dissolved in DMSO (Dimethyl sulfoxide) as 20 mM stock solution. • 2) Take 3 ul 20 mM stock solution of CPDs to 27 ul DMSO and mix well, continue the titration ratio of 1:3 (20 ul CPDs+40 ul DMSO), e.g., to give solutions of CPDS at 6.6 mM, 2.2 mM, etc., till the 10 points end. • 3) Take out assay plates with HT-29 cells from incubator, remove all culture medium then wash 1 time with 1×PBS, and change fresh McCOY's 5 A medium of FBS free with a cocktail of TNF-α (10 ng/ml), the SMAC mimetic (6 uM) and zVAD-FMK (10 μM) to stimulate the HT-29 cells to increase pRIPK1 levels and necroptosis. • 4) Add 0.5 μL of the diluted compound to the corresponding 96-well assay plates. • 5) Incubate the assay plates for 20 hours at 37° C. with 5% C02. 4. Performing Cell Viability Detection of HT-29 Cells after Treated with Compounds • 1) The CellTiter-Glo® Luminescent Cell Viability Assay was employed to detect the ATP levels of viable HT-29 cells. • 2) Equilibrate the CellTiter-Glo® buffer and the lyophilized substrate to room temperature prior to use. • 3) Resuspend the CellTiter-Glo® substrate with CellTiter-Glo® buffer, mix by gently vortexing to obtain a homogeneous solution. • 4) Pipette 20 μl the enzyme/substrate mixture by multi-channel pipette into the 96-well assay plates from step 5) under the Compounds titration and treatment stage. • 5) Place the plates on an orbital shaker and mix the contents for 3 minutes to induce cell lysis. • 6) Then allow the plates to incubate at room temperature for 10 minutes to stabilize luminescent signal. • 7) Read and record luminescence signal with EnVision. • 8) The geometric mean EC50 of the compounds were calculated from points response dose with duplicate. In Tables 2 and 4, activity is provided as follows: +++=0.1 nM≤EC50<100 nM; ++=100 nM≤EC50<1000 nM; +=1000 nM≤EC50<10000 nM.
`Cn1nncc1-c1cc(OC2CN(C(=O)N3N=CC[C@H]3c3cc(F)cc(F)c3)C2)c(F)cn1` [compound 34, (S)-(5-(3,5-difluorophenyl)-4,5-dihydro-1H-pyrazol-1-yl)(3-((5-fluoro-2-(1-methyl-1H-1,2,3-triazol-5-yl)pyridin-4-yl)oxy)azetidin-1-yl)methanone] gave an EC50 of 0.1 to 100 nM.
Work on `O=C(N1CC(Oc2nc(-c3ccn[nH]3)ncc2F)C1)N1N=CC[C@H]1c1cc(F)cc(F)c1` [compound 87, (S)-(5-(3,5-difluorophenyl)-4,5-dihydro-1H-pyrazol-1-yl)(3-((5-fluoro-2-(1H-pyrazol-5-yl)pyrimidin-4-yl)oxy)azetidin-1-yl)methanone] yielded an EC50 of 0.1 to 100 nM.
In the case of `Cc1nscc1-c1ncc(F)c(OC2CN(C(=O)N3N=CC[C@H]3c3cc(F)cc(F)c3)C2)n1` [compound 15, (S)-(5-(3,5-difluorophenyl)-4,5-dihydro-1H-pyrazol-1-yl)(3-((5-fluoro-2-(3-methylisothiazol-4-yl)pyrimidin-4-yl)oxy)azetidin-1-yl)methanone], the EC50 is reported as 0.1 to 100 nM.
With `Cc1oncc1-c1ncc(F)c(OC2CN(C(=O)N3N=CC[C@H]3c3cc(F)cc(F)c3)C2)n1` [compound 21, (S)-(5-(3,5-difluorophenyl)-4,5-dihydro-1H-pyrazol-1-yl)(3-((5-fluoro-2-(5-methylisoxazol-4-yl)pyrimidin-4-yl)oxy)azetidin-1-yl)methanone] the EC50 was 0.1 to 100 nM.
`CC(=O)Nc1cnn(C)c1-c1cc(OC2CN(C(=O)N3N=CC[C@H]3c3cc(F)cc(F)c3)C2)c(F)cn1` [compound 57, (S)—N-(5-(4-((1-(5-(3,5-difluorophenyl)-4,5-dihydro-1H-pyrazole-1-carbonyl)azetidin-3-yl)oxy)-5-fluoropyridin-2-yl)-1-methyl-1H-pyrazol-4-yl)acetamide] was tested, and the EC50 was 0.1 to 100 nM.
With `Cc1nn(CC(=O)N(C)C)c(C)c1-c1cc(OC2CN(C(=O)N3N=CC[C@H]3c3cc(F)cc(F)c3)C2)c(F)cn1` [compound 95, (S)-2-(4-(4-((1-(5-(3,5-difluorophenyl)-4,5-dihydro-1H-pyrazole-1-carbonyl)azetidin-3-yl)oxy)-5-fluoropyridin-2-yl)-3,5-dimethyl-1H-pyrazol-1-yl)-N,N-dimethylacetamide] the EC50 was 0.1 to 100 nM.
`Cc1ncc(-c2ncc(F)c(OC3CN(C(=O)N4N=CC[C@H]4c4cc(F)cc(F)c4)C3)n2)s1` [compound 25, (S)-(5-(3,5-difluorophenyl)-4,5-dihydro-1H-pyrazol-1-yl)(3-((5-fluoro-2-(2-methylthiazol-5-yl)pyrimidin-4-yl)oxy)azetidin-1-yl)methanone] was tested, and the EC50 was 0.1 to 100 nM.
`Cc1n[nH]c(C)c1-c1ccc(F)c(OC2CN(C(=O)N3N=CC[C@H]3c3cc(F)cc(F)c3)C2)c1` [compound 113, (S)-(5-(3,5-difluorophenyl)-4,5-dihydro-1H-pyrazol-1-yl)(3-(5-(3,5-dimethyl-1H-pyrazol-4-yl)-2-fluorophenoxy)azetidin-1-yl)methanone] showed an EC50 of 0.1 to 100 nM.
Compound `Cn1cncc1-c1ncc(F)c(OC2CN(C(=O)N3N=CC[C@H]3c3cc(F)cc(F)c3)C2)n1` [compound 8, (S)-(5-(3,5-difluorophenyl)-4,5-dihydro-1H-pyrazol-1-yl)(3-((5-fluoro-2-(1-methyl-1H-imidazol-5-yl)pyrimidin-4-yl)oxy)azetidin-1-yl)methanone] has an EC50 of 0.1 to 100 nM.

Same assay, conditions: Homo sapiens; HT-29 cells, FBS free medium, TNF-α (10 ng/ml), SMAC mimetic (6 uM), zVAD-FMK (10 μM), 20 hours; geometric mean EC50; read-out: Cell activity (EC50) of Compounds 117-281
`Cc1nn(-c2cc(OC3CN(C(=O)N4N=CC[C@H]4c4cc(F)cc(F)c4)C3)c(F)cn2)c(C)c1C(=O)NC1CC1` [compound 232, (S)—N-cyclopropyl-1-(4-((1-(5-(3,5-difluorophenyl)-4,5-dihydro-1H-pyrazole-1-carbonyl)azetidin-3-yl)oxy)-5-fluoropyridin-2-yl)-3,5-dimethyl-1H-pyrazole-4-carboxamide] gave an EC50 of 0.1 to 100 nM.
In the case of `Cc1nn(-c2cc(OC3CN(C(=O)N4N=CC[C@H]4c4cc(F)cc(F)c4)C3)c(F)cn2)c(C)c1CO` [compound 148, (S)-(5-(3,5-difluorophenyl)-4,5-dihydro-1H-pyrazol-1-yl)(3-((5-fluoro-2-(4-(hydroxymethyl)-3,5-dimethyl-1H-pyrazol-1-yl)pyridin-4-yl)oxy)azetidin-1-yl)methanone], the EC50 is reported as 0.1 to 100 nM.
`Cc1nn(-c2cc(OC3CN(C(=O)N4N=CC[C@H]4c4cc(F)cc(F)c4)C3)c(F)cn2)c(C)c1S(C)(=O)=O` [compound 190, (S)-(5-(3,5-difluorophenyl)-4,5-dihydro-1H-pyrazol-1-yl)(3-((2-(3,5-dimethyl-4-(methylsulfonyl)-1H-pyrazol-1-yl)-5-fluoropyridin-4-yl)oxy)azetidin-1-yl)methanone] showed an EC50 of 0.1 to 100 nM.
For `Cc1[nH]c(C(N)=O)c(C)c1-c1cc(OC2CN(C(=O)N3N=CC[C@H]3c3cc(F)cc(F)c3)C2)c(F)cn1` [compound 191, (S)-4-(4-((1-(5-(3,5-difluorophenyl)-4,5-dihydro-1H-pyrazole-1-carbonyl)azetidin-3-yl)oxy)-5-fluoropyridin-2-yl)-3,5-dimethyl-1H-pyrrole-2-carboxamide], the EC50 was 0.1 to 100 nM.
For `Cc1nn(C)c(C)c1-c1cc(OC2CN(C(=O)N3N=CC[C@H]3c3cc(F)cc(F)c3)C2)c(F)cn1` [compound 159, (S)-(5-(3,5-difluorophenyl)-4,5-dihydro-1H-pyrazol-1-yl)(3-((5-fluoro-2-(1,3,5-trimethyl-1H-pyrazol-4-yl)pyridin-4-yl)oxy)azetidin-1-yl)methanone], the EC50 was 0.1 to 100 nM.
In the case of `Cc1nn(-c2cc(OC3CN(C(=O)N4N=CC[C@H]4c4cc(F)cc(F)c4)C3)c(F)cn2)c(C)c1C(=O)NC#N` [compound 253, (S)—N-cyano-1-(4-((1-(5-(3,5-difluorophenyl)-4,5-dihydro-1H-pyrazole-1-carbonyl)azetidin-3-yl)oxy)-5-fluoropyridin-2-yl)-3,5-dimethyl-1H-pyrazole-4-carboxamide], the EC50 is reported as 0.1 to 100 nM.
`CCS(=O)(=O)c1c(C)nn(-c2cc(OC3CN(C(=O)N4N=CC[C@H]4c4cc(F)cc(F)c4)C3)c(F)cn2)c1C` [compound 167, (S)-(5-(3,5-difluorophenyl)-4,5-dihydro-1H-pyrazol-1-yl)(3-((2-(4-(ethylsulfonyl)-3,5-dimethyl-1H-pyrazol-1-yl)-5-fluoropyridin-4-yl)oxy)azetidin-1-yl)methanone] gave an EC50 of 0.1 to 100 nM.
With `Cc1nn(-c2cc(OC3CN(C(=O)N4N=CC[C@H]4c4cc(F)cc(F)c4)C3)c(F)cn2)c(C)c1C(=O)O` [compound 233, (S)-1-(4-((1-(5-(3,5-difluorophenyl)-4,5-dihydro-1H-pyrazole-1-carbonyl)azetidin-3-yl)oxy)-5-fluoropyridin-2-yl)-3,5-dimethyl-1H-pyrazole-4-carboxylic acid] the EC50 was 0.1 to 100 nM.
In the case of `CNC(=O)Nc1cnn(C)c1-c1cc(OC2CN(C(=O)N3N=CC[C@H]3c3cc(F)cc(F)c3)C2)c(F)cn1` [compound 142, (S)-1-(5-(4-((1-(5-(3,5-difluorophenyl)-4,5-dihydro-1H-pyrazole-1-carbonyl)azetidin-3-yl)oxy)-5-fluoropyridin-2-yl)-1-methyl-11H-pyrazol-4-yl)-3-methylurea], the EC50 is reported as 0.1 to 100 nM.
